Like-named read-outs stand apart in the source and are kept apart here.
Assays:
[1] = parameters: method as in data on file, Taiho Pharmaceutical Co., Ltd.; details: ref data on file, Taiho Pharmaceutical Co., Ltd., cited from earlier work
[2] = tested on: multiple tumor cell lines derived from human cancers; parameters: method as in data on file, Taiho Pharmaceutical Co., Ltd.; details: breast, ovarian, gastric, endometrial and myeloma lines; ref data on file, Taiho Pharmaceutical Co., Ltd.; cited from earlier work
[3] = parameters: method as in data on file, Taiho Pharmaceutical Co., Ltd.; details: repeated dosing; ref data on file, Taiho Pharmaceutical Co., Ltd.; cited from earlier work
AKT = assay: Ratio of pPRAS40/total PRAS40 in platelet-rich plasma (electrochemiluminescence); type: in vivo, human; details: at any time point; DEP, RMP and SAP; dose levels 2 to 5 (8 to 32 mg/body/day)
Procedure: Blood samples for pharmacokinetic analysis were collected immediately prior to dosing (0 h) and at 0.5, 1, 2, 3, 4, 6, 8, 12, and 24 h post-dose on Day 1 and Day 21 of Cycle 1 for patients in the DEP (QD dosing). For patients who received intermittent dosing regimens, blood was collected immediately prior to dosing (0 h) and at 1, 2, 3, 4, 6, 8, 10, and 24 h post-dose on Cycle 1 Day 1; immediately prior to dosing (0 h) on Cycle 1 Days 3, 4, and 8; and immediately prior to dosing (0 h) and at 1, 2, 3, 4, 6, 8, 10, 24, 48, and 96 h post-dose on Cycle 1 Day 18. […]
The pharmacodynamic activity of TAS-117 for AKT inhibition was evaluated by the change in the ratio of pPRAS40 (threonine 246) to total PRAS40 in platelet-rich plasma samples before and after TAS-117 administration. The phosphorylation status of PRAS40 in the blood was measured with an electrochemiluminescence detection assay using a Meso Scale Discovery instrument (Meso Scale Diagnostics, Rockville, MD, US). For efficacy, solid tumors were assessed using Response Evaluation Criteria in Solid Tumors (RECIST; version 1.1). Computed tomography scans were evaluated at baseline, every 6 weeks after initiating TAS-117 administration, and at the time of study discontinuation.

In the case of `C[C@]1(O)C[C@@](N)(c2ccc(-c3nc4n(c3-c3ccccc3)COc3ccncc3-4)cc2)C1` [TAS-117], the “Highest non-severely toxic dose” value ([1]; 4-week repeated oral dose) is given as 1.2 mg/kg/day, the Toxicity findings ([1]; repeated dosing) is given as “dysregulation of carbohydrate metabolism and atrophic changes in the lymphatic/hematopoietic organs and adipocytes” and the Anti-proliferative activity [2] is given as “strong anti-proliferative activity”. The Toxicity findings [3] was “dysregulation of carbohydrate metabolism and atrophic changes in the lymphatic/hematopoietic organs and adipocytes” and the “Reduction in the level of pPRAS40” value (AKT) was greater than 50%.

Reference: paper PMC11129975, “A first-in-human phase I study of TAS-117, an allosteric AKT inhibitor, in patients with advanced solid tumors” (Cancer Chemotherapy and Pharmacology, 2024)
